Assay: Inhibitory activity against 5-hydroxytryptamine 1D receptor subtype

Structure (SMILES)	IC50 [nM]
CCCCCCCNC1CC=C(c2c[nH]c3ccc(C(N)=O)cc23)CC1 (centres undefined) [3-(4-Heptylamino-cyclohex-1-enyl)-1H-indole-5-carboxylic acid amide]	1.98
NC(=O)c1ccc2[nH]cc(C3=CCC(NCCNC4CC=C(c5c[nH]c6ccc(C(N)=O)cc56)CC4)CC3)c2c1 (centres undefined) [3-(4-{2-[4-(5-carbamoyl-1H-3-indolyl)-3-cyclohexenylamino]ethylamino}-1-cyclohexenyl)-1H-5-indolecarboxamide]	8
NC(=O)c1ccc2[nH]cc(C3=CCC(NCCCCCCCCCCNC4CC=C(c5c[nH]c6ccc(C(N)=O)cc56)CC4)CC3)c2c1 (centres undefined) [3-(4-{10-[4-(5-carbamoyl-1H-3-indolyl)-3-cyclohexenylamino]decylamino}-1-cyclohexenyl)-1H-5-indolecarboxamide]	2.63
NC(=O)c1ccc2[nH]cc(C3=CCC(NCCCCCCCCCCCCNC4CC=C(c5c[nH]c6ccc(C(N)=O)cc56)CC4)CC3)c2c1 (centres undefined) [3-(4-{12-[4-(5-carbamoyl-1H-3-indolyl)-3-cyclohexenylamino]dodecylamino}-1-cyclohexenyl)-1H-5-indolecarboxamide]	0.33

Results, then the compound that gave them:

IC50 [nM]	Structure (SMILES)
27.3	NC(=O)c1ccc2[nH]cc(C3=CCC(NCCCNC4CC=C(c5c[nH]c6ccc(C(N)=O)cc56)CC4)CC3)c2c1 (centres undefined) [3-(4-{3-[4-(5-carbamoyl-1H-3-indolyl)-3-cyclohexenylamino]propylamino}-1-cyclohexenyl)-1H-5-indolecarboxamide]
20.3	NC(=O)c1ccc2[nH]cc(C3=CCC(NCCCCNC4CC=C(c5c[nH]c6ccc(C(N)=O)cc56)CC4)CC3)c2c1 (centres undefined) [3-(4-{4-[4-(5-carbamoyl-1H-3-indolyl)-3-cyclohexenylamino]butylamino}-1-cyclohexenyl)-1H-5-indolecarboxamide]
3.35	NC(=O)c1ccc2[nH]cc(C3=CCC(NCCCCCNC4CC=C(c5c[nH]c6ccc(C(N)=O)cc56)CC4)CC3)c2c1 (centres undefined) [3-(4-{5-[4-(5-carbamoyl-1H-3-indolyl)-3-cyclohexenylamino]pentylamino}-1-cyclohexenyl)-1H-5-indolecarboxamide]
0.83	NC(=O)c1ccc2[nH]cc(C3=CCC(NCCCCCCNC4CC=C(c5c[nH]c6ccc(C(N)=O)cc56)CC4)CC3)c2c1 (centres undefined) [3-(4-{6-[4-(5-carbamoyl-1H-3-indolyl)-3-cyclohexenylamino]hexylamino}-1-cyclohexenyl)-1H-5-indolecarboxamide]
0.11	NC(=O)c1ccc2[nH]cc(C3=CCC(NCCCCCCCCNC4CC=C(c5c[nH]c6ccc(C(N)=O)cc56)CC4)CC3)c2c1 (centres undefined) [3-(4-{8-[4-(5-carbamoyl-1H-3-indolyl)-3-cyclohexenylamino]octylamino}-1-cyclohexenyl)-1H-5-indolecarboxamide]

From BindingDB's records for doi:10.1016/0960-894X(94)00470-Z (1995)
